For one assay, the system named is MC3T3-E1 cells. In words: ECM mineralization by Alizarin Red stain. Format: cell-based, mouse. As to conditions: for matrix mineralization (Alizarin Red): MC3T3-E1, as early as 14 days of treatment. On the procedure: Differentiation of MC3T3-E1 cells was induced with 50 μg/mL ascorbic acid (Sigma-Aldrich) and 5 mM β-glycerophosphate (Sigma-Aldrich) in medium containing 5% FBS. RAW 264.7 cells were cultured in Dulbecco's modified Eagle's medium (DMEM, Invitrogen, Carlsbad, Calif., USA) supplemented with 10% fetal bovine serum (Hyclone) and 2 mM glutamine (Gibco, Carlsbad, Calif., USA). Cells were seeded in culture dishes at a density of 20,000 cells/cm^2 and cultured overnight unless stated otherwise. Before cells were treated with compounds, the culture medium was changed.
Calvariae from 2 to 3-day-old and from 7-week old C57BL/6 mice were dissected aseptically. The calvarial bone explants were cultured in 48-well plates in α-MEM (Biochrom) containing 10% FCS (Biochrom), 50 μg/mL ascorbic acid (Sigma-Aldrich), 5 mM β-glycerophosphate (Sigma-Aldrich), and 10 μg/mL gentamicin (Sigma-Aldrich). The day after dissection, medium was changed, and a part of the explants was treated with 3 μM L- or DL-SFN for 12 days. Thereafter, one part of the calvariae were fixed for 1 hour in 4% para-formaldehyde (PFA), and mineralization was measured by Alizarin Red S stain (Sigma-Aldrich). For this purpose, Alizarin Red S dye was extracted using 10% cetylpyridinium chloride (CPC) in 10 mM sodiumphosphate (pH=7.0) for 45 minutes at room temperature. Alizarin Red S absorbance was measured at 562 nm in a multi-plate reader (Tecan, Maennedorf, Switzerland) and normalized to total protein amount measured by bicinchoninic acid assay (Thermo Fisher Scientific, Waltham, Mass., USA). From the other part of the calvariae, total RNA was extracted.

In another assay the test system is MC3T3 cells. In words: Osteogenic differentiation of MC3T3 cells under EZH2 inhibition. It is filed as cell-based, mouse. The settings on record: 1 μM UNC1999. As for the experimental part:
MC3T3 cells were seeded in 6-well plates in maintenance medium (10,000 cells/cm^2). The following day, maintenance medium was replaced with osteogenic medium (αMEM supplemented with 50 μg/mL ascorbic acid (Sigma) and 4 mM beta glycerol phosphate (Sigma)) containing vehicle or EZH2 inhibitor. Three days later, vehicle or EZH2 inhibitors were added again with osteogenic medium. On day six, EZH2 inhibitor and vehicle were removed, and fresh osteogenic medium added.
Media were changed every three days. RNA was isolated at indicated times. On day 6, cells were fixed in 10% neutral buffered formalin and stained with 5-bromo-4-chloro-3-indolyl-phosphate/nitro blue tetrazolium to monitor the enzymatic activity of alkaline phosphatase (Promega). On day 14 (AMCs) and days 21-25 (MC3T3), cells were fixed in 10% neutral buffered formalin and stained with 2% Alizarin Red to visualize calcium deposition. Absorption of alizarin red stain was normalized to total DNA as measured by Hoechst staining of the nuclei.

The next assay has as its system RAW 264.7 cells. Description: RT-qPCR mRNA expression. Format: cell-based, mouse. As to conditions: RAW 264.7 induced with RANKL and MCSF, co-treatment with SFN. As for the experimental part: Total RNA was extracted using the SV Total RNA Isolation kit (Promega) following the supplier's instructions. cDNA was synthesized from about 0.5 μg RNA using the First Strand cDNA Synthesis kit (Roche) as described by the supplier. The resulting cDNAs were subjected to quantitative PCR amplification with a real-time cycler using the QUANTITECT™ SYBR® Green PCR Kit (Qiagen, Hilden, Germany) for the genes Alpl, Fas, Lox, Tet1, Tet2, and TAQMAN® Gene expression Master Mix (Applied Biosystems, Foster City, Calif., USA) for measuring Runx2, Bglap2, Colla1, Tnfsf11, and 18S rRNA expression (for primers, see Table 1). SYBR-Green RT-qPCR was started with an initial denaturation step at 95° C. for 10 minutes and then continued with 45 cycles consisting of 30 seconds denaturation at 95° C., 30 seconds annealing at primer-specific temperatures, and extension at 72° C. For measurement of the TAQMAN® assays, an initial denaturation at 95° C. for 10 minutes was applied, followed by 45 cycles alternating 60 seconds at 60° C. and 15 seconds at 95° C. All RT-qPCR assays were performed in triplicate, and expression was evaluated using the comparative quantification method (Pfaffl, Nucleic Acids Res., 29:e45 (2001)).

In assay [1] the test system is primary mouse osteoclasts. In words: Osteoclastic resorption on dentin slices. Format: cell-based. The settings on record: 3 μM L- or DL-SFN, 14 days. On the procedure:
Primary mouse tissues or cells were obtained according to procedures that conform to the regulatory guidelines of the Institutional Animal Care and Use Committee of the Medical University of Vienna. Primary mouse osteoclasts were harvested from 8-week old C57BL/6 mice, which were sacrificed, and bone marrow cells were isolated from tibias and femurs under aseptic conditions and cultured in α-MEM (Biochrom) containing 10% FCS (Biochrom), […] (Sigma-Aldrich) and macrophage colony stimulating factor (MCSF1, 30 ng/mL). After 24 hours, non-adherent cells were seeded onto sterile, 300 μm thick dentin slices (elephant ivory) at 700,000 cells/cm^2 in αMEM supplemented with 10% FBS, 2 mM 1-glutamine, 30 μg/mL gentamycin, 20 ng/mL M-CSF, and 2 ng/mL RANKL (R&D Systems, Minneapolis, Minn., USA). Culture medium was changed twice per week, and cells were cultured for 14 days.
After culturing the primary mouse osteoclasts for 14 days on dentin slices in the presence or absence of 3 μM L- or DL-SFN, substrates were put into water, sonicated for 10 minutes to remove living cells and air-dried. Photographs were obtained by reflected light microscopy (objective 20×) of the entire substrate surface, and resorption trails and pits were analyzed and quantified with standard image analysis software (ImageJ, rsbweb.nih.gov/ij/). […]

The subject of assay [2] is sham operated or ovariectomized (OVX) C57B16/J female mice. In words: In vivo analysis of SFN effects on bone, μCT. More on the design: species or system mouse. The settings on record: OVX mice; mitigation of the OVX-dependent decrease of trabecular number. On the procedure:
Analysis of SFN on mice was performed using a protocol similar to that described elsewhere (Kong et al., Arthritis Rheum., 62:159-170 (2010)). In the experimental setting herein, eight week old sham operated or ovariectomized (OVX) C57B16/J female mice were purchased from Charles River laboratories. Mice were injected with 7.5 mM DL-SFN (200 μL of SFN at a concentration of 63.8 mg/mL/kg dissolved in ethanol and further diluted in PBS) intraperitoneally every other day for five weeks. Control mice received vehicle alone.
Images from tibias fixed in 4% formaldehyde were acquired in a SkyScan 1174 with a resolution of 6 μm (X-ray voltage 50 kV). Image reconstruction was performed by applying a modified Feldkamp algorithm using the Skyscan Nrecon software. 3D and 2D morphometric parameters were calculated for the trabecular bone (350 consecutive slides, 6 μm thick) starting from 300 μm from the growth plate. Threshold values were applied for segmenting trabecular bone corresponding to bone mineral density values of 0.6/cm^3 calcium hydroxyapatite. 3D parameters were based on analysis of a Marching Cubes type model with a rendered surface. Calculation all of 2D areas and perimeters was based on the Pratt algorithm (Pratt et al., IEEE Trans. Biomed. Eng., 38, 306-309 (1991). Bone structural variables and nomenclature were used according to Bouxsein et al. (J. Bone Miner. Res., 25:1468-1486 (2010)).

Here are results for three molecules from patent US20180133211A1, “METHODS AND MATERIALS FOR PROMOTING BONE FORMATION” (Mayo Foundation for Medical Education and Research, priority 2015, published 2018).

Consider `C[S+](C)[O-]` [DMSO, methanesulfinyl methane], for which, in the assay on MC3T3-E1 cells, the “matrix mineralization (Alizarin Red)” value is “increased matrix mineralization”.
Turning to `CCCc1cc(C)[nH]c(=O)c1CNC(=O)c1cc(-c2ccc(N3CCN(C(C)C)CC3)nc2)cc2c1cnn2C(C)C` [UNC1999, N-[(6-methyl-2-oxo-4-propyl-1,2-dihydropyridin-3-yl)methyl]-1-(propan-2-yl)-6-{6-[4-(propan-2-yl)piperazin-1-yl]pyridin-3-yl}-1H-indazole-4-carboxamide], the “osteogenic differentiation of MC3T3 cells” value in the assay with MC3T3 cells is “promotes”.
On to “1-isothiocyanato-5-methanesulfinylpentane [SFN]”, for which, in the assay with RAW 264.7 cells, the “expression of classical osteoclastic markers (Acp5, Clcr, Ctsk)” value is recorded as “no appreciable changes”. The “potency in stimulating matrix mineralization relative to DMSO” value in the assay on MC3T3-E1 cells (MC3T3-E1) is on record as “at least four orders of magnitude more potent than DMSO”. Further, in the assay with MC3T3-E1 cells, the “matrix mineralization (Alizarin Red)” value was “increased matrix mineralization”. In addition, the “area resorbed by primary mouse osteoclast cultures on ivory discs” value in assay [1] is “significantly reduced”. The “bone loss due to estrogen-deficiency” value in assay [2] is “reduced bone loss”.
